Literature values as cited in patent publication US20120316134A1, “ANAESTHETIC COMPOSITION” (JUROX PTY. LTD., priority 2000, published 2012).

Settings: in vivo

## CC(=O)OCC(=O)[C@H]1CC[C@H]2[C@@H]3CC[C@H]4C[C@H](O)CC[C@]4(C)[C@H]3C(=O)C[C@]12C [alfadolone acetate, 21-acetoxy-3 α-hydroxy-5α-pregnane-11,20-dione]
  Anaesthetic potency relative to alfaxalone: half as potent
